From paper PMC10987829 (iScience, 2024)
Values belong to the molecule of their own block, whether it stands above or below them.

Columns and labels:
[1] = target: H2A/H2B dimers (Xenopus laevis, UniProt P02281+P06897); assay: Protein thermal shift; type: binding; details: H2A/H2B 0.5 mg/mL, ligand 1.2:1 molar ratio, 50 mM Bis-Tris propane pH 7.4, 150 mM NaCl, 10X SYPRO Orange; apo H2A/H2B Tm 46.1 ± 0.2°C; three replicates
[2] = tested on: H3/H4; details: cited from earlier work
[3] = target: Npm2 A2mockglu4 peptide (…), 'pseudo-glutamylated' (Xenopus laevis); assay: other fluorescence titration
[4] = tested on: mononucleosomes; assay: Disassembly of premade mononucleosomes; type: biochemical; details: salt-dialysis mononucleosomes, increasing chaperone

change of H2A/H2B melting temperature (Tm) [1]: 6.7 °C
Molecule: DYDEEGEEADDEEGEEEADEDHDPDFDPK [Nap1 A3 (350–382)]

Molecule: Npm2 Tail (119–146): Npm2 C-terminal Tail domain peptide, residues 119–146, purified as previously described (AMEEDYSWAEEEDEGEEEEEEEEDPESP)
fold lower affinity for H3/H4 than for H2A/H2B [2]: 5 fold

Kd [3]: 300 nM
Molecule: Xenopus laevis H2A/H2B heterodimer (from UniProt P06897;P02281) (complex)

B1: Nap1glu: TTLL4-treated (glutamylated) full-length Nap1 (protein)
chain: MANIDNKGQTELDQQDMEDVEDVEEEETGEDANSKARQLTAQMMQNPQVLAALQERLDDLVGTPTGYIESLPKVVKRRVNALKNLQVKCAQIEAKFYEEVHELERKYAALYQPLFDKRSDIINATYEPTEEECEWKVEEEDISGDLKEKAKLEEEKKDEEKEDPKGIPEFWLTVFKNVDLLSDMLQEHDEPILKHLKDIKVKFSDAGQPMSFTLEFYFEPNEFFTNEVLTKTYKMRSEPDESDPFSFDGPEIMGCTGCLIDWKKGKNVTLKTIKKKQKHKGRGTVRTVTKTVPNDSFFNFFTPPEVPENGELDDDAEAILTADFEIGHFLRERIIPRSVLYFTGEAIEDDDDDYDEEGEEADDEEGEEEADEDNDPDYEPKV
disassembly of premade mononucleosomes [4]: neither Nap1 nor Nap1glu were able to disassemble premade mononucleosomes
